In ChEMBL document CHEMBL3871301, “Biotransformation of isofraxetin-6-O-β-d-glucopyranoside by Angelica sinensis (Oliv.) Diels callus” (Bioorg Med Chem Lett, 2017) one finds IC50 and Activity data, which are given here for twelve compounds.

One series is described as follows: cells. Conditions: Mus musculus, BV-2, 24 h.
For another series, the species on record is Mus musculus. The series is described as follows: Cytotoxicity against mouse BV2 cells assessed as reduction in cell viability at antineuroinflammatory IC50 after 24 hrs in presence of LPS by MTT assay. Format: toxicity, cell-based. The following applies: bv-2, 24 h.

Description for cells: Antineuroinflammatory activity in mouse BV2 cells assessed as inhibition of LPS-induced NO production after 24 hrs in presence of LPS by Griess reaction based assay

Take `COc1cc2c(c(OC)c1OC)-c1c(cc(OC)c(OC)c1OC)C[C@@](C)(O)[C@@H](C)C2`: in the series “cells”, the half-inhibitory concentration (IC50) (usually the midpoint of a concentration-inhibition curve) is more than 100 µM.
As for `COc1ccc(Cc2ccc(OC)cc2)cc1`, the Activity entry in the series filed under Mus musculus was “Non-Toxic”. For the same compound, it took 1.22 µM to reach half-maximal inhibition in the series “cells” (IC50).
The corresponding values for `COC(=O)Nc1ccc(C)c(NC(=O)OC)c1` are “Non-Toxic” and 10.6 µM.
`NC(=O)Cc1ccccc1` showed an IC50 in the series “cells” of more than 100 µM.
Still for that read-out and setting: as for `COc1cc2oc(=O)ccc2c(O)c1O`, the figure is more than 100 µM; as for `COc1cc([C@@H]2COc3c(c(OC)cc4ccc(=O)oc34)O2)ccc1O`, more than 100 µM.
The compound `COc1cc2ccc(=O)oc2c(OC)c1O` showed a half-maximal inhibitory concentration (IC50) in the series “cells” of more than 100 µM.
As for `O=Cc1c[nH]c2ccccc12` [3-FORMYLINDOLE], the Activity entry in the series listed under Mus musculus is “Non-Toxic”. Moreover, the concentration for half-maximal inhibition (IC50) in “cells” is 0.76 µM.
In “cells”, `COc1cc([C@H]2Oc3c(OC)cc4ccc(=O)oc4c3O[C@@H]2CO)ccc1O` [CLEOMISCOSIN A] yielded an IC50 of more than 100 µM.
In the series “cells”, `CN(C)c1ccc(O)c2c1C[C@H]1C[C@H]3[C@H](N(C)C)C(O)=C(C(N)=O)C(=O)[C@@]3(O)C(O)=C1C2=O` [MINOCYCLINE] had an IC50 of 35.8 µM.
`O=c1cc[nH]c(=O)[nH]1` [URACIL] registered an IC50 in the series “cells” of more than 100 µM.
For `COc1cc2c(c(OC)c1OC)-c1c(cc3c(c1OC)OCO3)C[C@H](C)[C@H](C)C2` [WUWEIZISU B], the IC50 in the series “cells” is more than 100 µM.
